The target of one series is T1, human CB1 receptor (Homo sapiens, UniProt P21554).
T1 construct: U373MG cells naturally expressing the human CB1 receptor; endogenous in cells; host or cells: U373MG cells
As to the kind of experiment: intracellular cyclic AMP functional test in U373MG cells (HTRF cAMP Dynamic Kit). As to conditions: U373MG cells naturally expressing the human CB1 receptor. In kind it is cell-based. As for the experimental part:
The compounds according to the invention have been the subject of pharmacological assays which make it possible to determine the activity with respect to human CB1-type cannabinoid receptors. The effectiveness of the compounds of formula (I) was determined in a functional test in which the activity of the CB1 cannabinoid receptors is measured (intracellular cyclic AMP test). The test for detecting intracellular cyclic AMP in U373MG cells naturally expressing the human CB1 receptor was carried out as described in the reference: Bouaboula et al., 1995, J. Biol. Chem. 270:13973-13980. The HTRF cAMP Dynamic Kit from CisBio was used to quantify the intracellular cyclic AMP. In this test, the IC50 values are between 0.001 μM and 1 μM.
For orientation: Time-resolved FRET reads energy transfer from a long-lived donor to a nearby acceptor.

A further series has as its target T2, CB1 cannabinoid receptor (Mus musculus, UniProt P47746).
T2 construct: male CD1 mice receive the test product per os; from tissue; host or cells: whole animal, male CD1 mice (gastrointestinal tract)
As to the kind of experiment: inhibition of gastrointestinal transit induced by racemic CP55,940 in mice (charcoal bolus). In kind it is in vivo. As to conditions: male CD1 mice, 3 hours after administration of the product, CP55,940 0.15 mg/kg ip. The protocol: Their antagonist activity was also shown by means of the model of inhibition of gastrointestinal transit induced by racemic CP55,940 (1RS, 3RS, 4RS)-3-[hydroxy-2-(1,1-dimethylheptyl)phenyl]-4-(3-hydroxypropyl)cyclohexan-1-ol) in mice, according to the method described by Rinaldi-Carmona et al., J. Pharmacol. Exp. Ther. 2004, 310, 905-914. Briefly, male CD1 mice receive the test product per os 30 minutes or 2 hours before administration of the racemic CP55,940 agonist ((1RS, 3RS, 4RS)-3-[hydroxy-2-(1,1-dimethylheptyl)phenyl]-4-(3-hydroxypropyl)cyclohexan-1-ol) (0.15 mg/kg ip in 10% cremophor). After a further 30 minutes, the animals receive a charcoal bolus po. Thirty minutes later, the animals are sacrificed by euthanasia (CO2/O2) and the intestine is dissected. The progression of the charcoal bolus in the intestine is expressed as percentage of the total length of the intestine.

This is an account of results in patent publication US20110183961A1, “AZETIDINE POLYSUBSTITUTED COMPOUNDS, PREPARATION THEREOF, AND THERAPEUTIC APPLICATION THEREOF” (SANOFI-AVENTIS, priority 2008, published 2011).

Structures are written as SMILES.

T1 sequence (P21554 whole entry): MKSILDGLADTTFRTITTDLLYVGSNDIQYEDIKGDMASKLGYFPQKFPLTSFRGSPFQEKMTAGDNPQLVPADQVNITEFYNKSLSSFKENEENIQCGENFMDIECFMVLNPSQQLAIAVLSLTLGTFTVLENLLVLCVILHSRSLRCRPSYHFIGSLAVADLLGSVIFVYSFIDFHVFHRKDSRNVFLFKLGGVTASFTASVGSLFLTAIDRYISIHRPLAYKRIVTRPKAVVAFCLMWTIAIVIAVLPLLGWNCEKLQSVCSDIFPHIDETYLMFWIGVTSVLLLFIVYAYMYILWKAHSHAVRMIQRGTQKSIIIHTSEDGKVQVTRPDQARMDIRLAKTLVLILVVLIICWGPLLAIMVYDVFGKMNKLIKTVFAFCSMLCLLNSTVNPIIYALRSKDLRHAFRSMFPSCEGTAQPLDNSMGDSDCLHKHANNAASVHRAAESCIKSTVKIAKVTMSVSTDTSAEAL
T2 sequence (P47746 whole entry): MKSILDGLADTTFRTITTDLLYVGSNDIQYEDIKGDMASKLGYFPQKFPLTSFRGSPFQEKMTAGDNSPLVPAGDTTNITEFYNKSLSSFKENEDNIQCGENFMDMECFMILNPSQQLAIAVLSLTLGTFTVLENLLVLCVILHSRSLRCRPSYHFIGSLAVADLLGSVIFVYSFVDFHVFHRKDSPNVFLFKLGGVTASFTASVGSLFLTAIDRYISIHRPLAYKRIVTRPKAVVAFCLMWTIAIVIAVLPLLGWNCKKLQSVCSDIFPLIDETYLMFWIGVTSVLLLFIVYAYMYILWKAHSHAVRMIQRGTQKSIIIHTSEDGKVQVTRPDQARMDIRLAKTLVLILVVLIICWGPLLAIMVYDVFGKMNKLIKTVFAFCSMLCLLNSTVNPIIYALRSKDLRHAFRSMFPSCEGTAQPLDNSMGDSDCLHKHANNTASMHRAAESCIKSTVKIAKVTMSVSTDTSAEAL

What is called melting point is the temperature of the solid-liquid transition. `CS(=O)(=O)N(c1cccc(C(=O)NC2CCSCC2)c1)C1CN(C(c2ccc(Cl)cc2)c2ccc(Cl)cc2)C1` [compound 10, 3-[{1-[bis(4-chlorophenyl)methyl]azetidin-3-yl}(methylsulphonyl)amino]-N-(tetrahydro-2H-thiopyran-4-yl)benzamide] came in with a melting point of 210 °C.

Usually IC50 stands for the concentration that gives 50% inhibition. A high value points to a need for much substance. With `CS(=O)(=O)N(c1cccc(C(=O)NCCN2CCNC2=O)c1)C1CN(C(c2ccc(Cl)cc2)c2ccc(Cl)cc2)C1` [compound 9, 3-[{1-[bis(4-chlorophenyl)methyl]azetidin-3-yl}(methylsulphonyl)amino]-N-[2-(2-oxoimidazolidin-1-yl)ethyl]benzamide], the melting point came to 130 °C. This compound also yielded a 50% inhibitory concentration (IC50) at human CB1 receptor of 130 nM.

Compound `CS(=O)(=O)N(c1cccc(C(=O)NC2CCS(=O)(=O)CC2)c1)C1CN(C(c2ccc(Cl)cc2)c2ccc(Cl)cc2)C1` [compound 11, 3-[{1-[bis(4-chlorophenyl)methyl]azetidin-3-yl}(methylsulphonyl)amino]-N-(1,1-dioxidotetrahydro-2H-thiopyran-4-yl)benzamide] displayed a melting point of 270 °C. Regarding `CCN1CCCC1CNC(=O)c1cccc(N(C2CN(C(c3ccc(Cl)cc3)c3ccc(Cl)cc3)C2)S(C)(=O)=O)c1` (single isomer, unassigned; (+)) [Compound No. 6, (+)-3-[{1[bis(4-Chlorophenyl)methyl]azetidin-3-yl}(methyl-sulphonyl)amino]-N-{[1-ethylpyrrolidin-2-yl]methyl}benzamide], the melting point amounted to 122 °C. On human CB1 receptor, `CS(=O)(=O)N(c1cc(F)cc(C(=O)NC2CCNC2=O)c1)C1CN(C(c2ccc(Cl)cc2)c2ccc(Cl)cc2)C1` (single isomer, unassigned; (-)) [Compound No. 16, (−)-3-[{1-[bis(4-Chlorophenyl)methyl]azetidin-3-yl}(methylsulphonyl)amino]-5-fluoro-N-[2-oxopyrrolidin-3-yl]benzamide] returned a half-maximal inhibitory concentration (IC50) of 7 nM. Turning to `CCN1CCCC1CNC(=O)c1cccc(N(C2CN(C(c3ccc(Cl)cc3)c3ccc(Cl)cc3)C2)S(C)(=O)=O)c1` (single isomer, unassigned; (-)) [Compound No. 5, (−)-3-[{1-[bis(4-Chlorophenyl)methyl]azetidin-3-yl}(methyl-sulphonyl)amino]-N-{[1-ethylpyrrolidin-2-yl]methyl}benzamide], the melting point was 128 °C. The “percentage inhibition, gastrointestinal transit model” value at CB1 cannabinoid receptor (1 mg/kg per os) is given as 39%. As for `CS(=O)(=O)N(c1cc(F)cc(C(=O)NC2CCNC2=O)c1)C1CN(C(c2ccc(Cl)cc2)c2ccc(Cl)cc2)C1` (centres unmarked) [Compound No. 14, 3-[{1[bis(4-Chlorophenyl)methyl]azetidin-3-yl}(methyl-sulphonyl)amino]-5-fluoro-N-(2-oxopyrrolidin-3-yl)benzamide], at human CB1 receptor, the IC50 worked out at 9 nM. Consider `CS(=O)(=O)N(c1cccc(C(=O)NC2CCS(=O)(=O)C2)c1)C1CN(C(c2ccc(Cl)cc2)c2ccc(Cl)cc2)C1` (centres unmarked) [Compound No. 2, 3-[{1-[bis(4-Chlorophenyl)methyl]azetidin-3-yl}(methylsulphonyl)amino]-N-(1,1-dioxidotetrahydrothiophen-3-yl)benzamide], for which the “percentage inhibition, gastrointestinal transit model” value on CB1 cannabinoid receptor (2 mg/kg per os) came out at 57%. The compound also displayed a half-inhibitory concentration (IC50) against human CB1 receptor of 47 nM.
